{"source": "patent US11779597B2", "about": "“Method of treating Parkinson's and other neurodegenerative diseases” (Vector Vitale IP LLC, priority 2019, dated 2023)", "key": {"[1]": {"tested_on": "rat peripheral blood monocytes", "assay": "Metabolic profile of nonsensitized rat peripheral blood monocytes in vitro", "type": "cell-based", "procedure": "Materials and methods: Rat microglial cells were isolated by mechanical (cell sieves) disintegration of the brain tissue (FIG. 30A, FIG. 30B and FIG. 30C) followed by fractionation of the tissue homogenate in Percoll density gradient (Microglia: Methods and Protocols, Edited by Bertrand Josef and Jose Luis Venero, Springer protocol. Humana Press, 2013, 350 p.) (FIG. 31). Before the collection of the brain tissue, decapitation was performed to avoid hemorrhage to the brain during sampling (FIG. 32). Decapitation was performed immediately after anesthesia to minimize the death of brain tissue, including microglial cells. All manipulations for the isolation of microglial cells were carried out using coolants. Circulating neutrophils were isolated from venous blood taken into a tube containing EDTA in a two-step Percoll gradient (Alsharif K F et al. Vascul Pharmacol. 2015 August; 71:201-7. doi: 10.1016/j.vph.2015.02.006)(FIG. 33A and FIG. 33B). Circulating monocytes were isolated from venous blood collected into a tube containing heparin in a two-step Hypaque gradient (Macrophages and dendritic cells: Methods and Protocols, Edited by Neil E. Reiner, NY, Humana Press, 2009: 368 P). The metabolic profile of phagocytes was characterized based on the pathway of arginine metabolism (levels of arginase activity and NO synthesis measured using photocolorimetric methods), the level of formation of intracellular reactive oxygen species (ROS) by esterases and the indices of phagocytic activity determined by flow cytofluorimetry, as well as according to the activation levels of NADH and NADPH oxidases determined in NBT test. Duration of treatment of phagocytes of all the above mentioned populations varied depending on the methodological characteristics of metabolic response. A 90 minute exposure to the drugs according to Kim et al., 1977 (cited above) was used to analyze their effects on oxidative metabolism and phagocytic activity. An 18 hour exposure according to Lastra et al., 2001 (cited above) was used to analyze the drug effects on arginine metabolic pathway. To analyze the effects of the drugs under study on the induced (stimulated) metabolic activity of phagocytes, the cells were treated with lipopolysaccharide (LPS) from E. coli (Sigma, USA) according to Haddad et al., 2009 (cited above)."}, "[2]": {"tested_on": "LPS rat models of Parkinson's disease", "assay": "Open field test", "type": "in vivo", "excerpt": "Method. The open field test is a technique commonly used to measure locomotor activity of rodents and their level of exploratory activity in an unfamiliar environment, as well as assess the levels of fear of novelty, anxiety or an increase in orientation response in rodents (Denenberg V H, et al., Physiology and Behavior, 1969; 4:403-406; Pellow S et al., J Neurosci Methods. 1985; 14(3):149-67). Behavioral patterns measured in the open field test include: distance travelled in the outer and inner perimeter, duration of time spent in the outer and inner perimeter, the total distance travelled and a percentage of the number of internal squares crossed compared to the total number of squares.\nThe open field was a square chamber 100×100 cm in size and with walls 60 cm high. The chamber was illuminated by two LED bulbs, 60 watts each, hanging at a height of 2 m. An IP camera was used to record the rodent movement. The MATLAB-based software was used to analyze the parameters. The statistical analysis was performed using GraphPad Prism. Significance was set at <0.005. The data collected from the open field were analyzed using One-way ANOVA (Tukey test or Dunnett test) and Unpaired t-test or Mann-Whitney.\nData analysis and interpretation. A novel environment in which an animal finds itself evokes conflict between fear and a desire to explore this environment. These two behavioral tendencies are characterized by different temporal variations and different spatial advantages. In the analysis, an arena is divided into two zones: inner and outer. The total locomotor activity and time spent in the inner and outer zones are the most significant parameters for assessing the levels of anxiety in rats. […] An increase in attendance of the inner zone is interpreted as a decreased anxiety in the animal. The emotional and exploratory behavior of an animal can be affected by various disorders in such brain regions as the hippocampus and the amygdala. In addition, various substances that have anxiolytic, stimulating and muscle relaxant effects can influence the results of the experiment. FIG. 50A and FIG. 50B show an example of analysis of a rat trajectory in the experimental arena.\nOn the 1st day of the experiment, rats were either operated to model hemi-parkinsonism or sham operated. From the 9th to the 18th day of the experiment, the animals were injected either deuterium-depleted water or the test substance, according to their allocation into groups, for 10 days. On the 8th day of the experiment (before initiation of treatment—apomorphine test I) and on the 21st day of the experiment (after the end of administering the test substance —apomorphine test II) the animals underwent an apomorphine test to analyze the development of hemi-parkinsonism which correlates with the number of destroyed dopaminergic neurons. In addition, a follow-up analysis of fecal water content was carried out, i.e., before the start of treatment on the 8th day after the operation, as well as on the 21st (after the end of treatment) and the 28th day (before autopsy). On the 24th day of the experiment, behavioral tests were carried out in all groups. All animals were weighed before autopsy. During autopsy, ⅔ of animals from each group were sacrificed by cervical dislocation and brain and blood samples were collected for further biochemical and immunological tests. ⅓ of the animals were used for further immunohistochemical studies of the brain; for this purpose, under anesthesia, a procedure of fast, controlled and uniform fixation of the whole body of the animal was performed using 4% paraformaldehyde perfused through the heart of the rat to obtain the best preservation of the brain architecture for immunohistochemistry. Gage G J, et al., J Vis Exp. 2012 Jul. 30; (65)."}}, "data": [{"substance": "^64Zn-enriched zinc aspartate [^64Zne-asp]", "values": [{"measurement": "LPS-stimulated oxidase-dependent respiratory burst of monocytes", "setting": "[1]", "value": "no effect"}, {"measurement": "production of nitric oxide by monocytes treated with LPS", "setting": "[1]", "value": "moderately increased"}, {"measurement": "spontaneous esterase-dependent intracellular ROS production by monocytes", "setting": "[1]", "value": "decrease"}, {"measurement": "intracellular ROS production by bacterial LPS-treated monocytes", "setting": "[1]; 10 μg/ml", "value": "statistically significantly reduced"}, {"measurement": "spontaneous oxidative metabolism dependent on NADH and NADPH oxidases (NBT test) in monocytes", "setting": "[1]; 10 μg/ml", "value": "slightly increased"}, {"measurement": "phagocytic activity of monocytes", "setting": "[1]; concentrations ≤5 μg/ml", "value": "reduced"}, {"measurement": "spontaneous production of nitrites by nonsensitized circulating monocytes", "setting": "[1]; regardless of the concentration", "value": "did not change significantly"}, {"measurement": "arginase activity of monocytes", "setting": "[1]; resting cells and bacterial LPS-treated cells", "value": "absent"}, {"measurement": "frequency of defecations (in words)", "setting": "[2]; LPS + ^64Zn-asp versus LPS + deuterium-depleted water", "value": "increased"}, {"measurement": "Number of defecations", "setting": "[2]; LPS + ^64Zn-asp, Gr. V", "value": "7 ± 2.582"}, {"measurement": "Number of groomings", "setting": "[2]; LPS + ^64Zn-asp, Gr. V", "value": "3.5 ± 1.354"}, {"measurement": "Number of rearings", "setting": "[2]; LPS + ^64Zn-asp, Gr. V", "value": "14.4 ± 6.687"}, {"measurement": "Time spent in the inner perimeter", "setting": "[2]; LPS + ^64Zn-asp, Gr. V", "value": "9.235 ± 9.344", "unit": "s"}, {"measurement": "Time spent in the outer perimeter", "setting": "[2]; LPS + ^64Zn-asp, Gr. V", "value": "290.8 ± 9.333", "unit": "s"}, {"measurement": "Total distance travelled, cm", "setting": "[2]; LPS + ^64Zn-asp, Gr. V", "value": "1056 ± 423", "unit": "cm"}, {"measurement": "levels of locomotor activity, anxiety or irritability (summary of behavioral tests)", "setting": "[2]; findings of Example 7", "value": "no significant effects"}, {"measurement": "total distance travelled, time in outer and inner perimeter, number of rearings and groomings (in words)", "setting": "[2]; group V (LPS+^64Zn-asp) versus group IV (LPS)", "value": "did not have any effect"}]}]}
